# Measured values as given in the OPERA property sets (Mansouri et al. 2018).
# Details: not given
SMILES,log10 Henry constant (atm·m³/mol),log10 Koc (L/kg),log10 vapour pressure (mmHg),boiling point [°C],melting point [°C],ready biodegradability,logP,log10 Koa
Clc1ccc(Cl)c(-c2ccc(Cl)c(Cl)c2Cl)c1,-4.13,4.62,-4.77,,,,,
COC(=O)c1ccc2ccccc2c1,,,,290,77,,,
O=C1C(Cl)C(CCl)CN1c1cccc(C(F)(F)F)c1 (centres undefined),,,-5.48,,67.7,,,
COc1ccc(C(=O)Cl)cc1,,,,262,24.5,,,
N#CSCc1ccccc1,,,,232,43,,,
Clc1cccnc1Cl,,,,,66,,,
CCNc1nc(NCC)nc(OC)n1,,2.34,-5.62,,,,,
Cc1cncnc1,,,,153,30.5,,,
C=CC(O)C=C,,,,116,,,,
C=CCC(C(=O)O)C(=O)O,,,,,105,,,
C=CCOCC,,,2.18,67.6,,,,
CCCC(C)I (centres undefined),,,1.04,150,-50,,,
CC(C)(C)c1cc(Cc2cc(C(C)(C)C)c(O)c(C(C)(C)C)c2)cc(C(C)(C)C)c1O,,,,,,not readily biodegradable,,
OCCCF,,,,128,,,,
OCC(F)(F)C(F)(F)C(F)(F)C(F)(F)C(F)(F)C(F)(F)C(F)(F)F,,,,161,,,,
CC(O)CNCC(C)O (centres undefined),,,-3.9,250,44.5,readily biodegradable,,
CC1(C)C2CCC1(C)C(O)C2 (centres undefined),,,,,,readily biodegradable,,
O=C(CCc1ccc(O)cc1)c1c(O)cc(O)cc1O[C@@H]1O[C@H](CO)[C@@H](O)[C@H](O)[C@H]1O,,,,,110,,,
CCCCCCCCCCc1ccc(O)c(/C=N/O)c1,,,,,,readily biodegradable,,
CCCCS/C(=N\c1cccnc1)SCc1ccc(C(C)(C)C)cc1,,,,,32,,,
Oc1ccc2c3c1O[C@H]1[C@@H](O)C=C[C@H]4[C@H](C2)NCC[C@@]341,,,,,273,,,
CC[N+](CC)(CCNC(=O)C(=O)NCC[N+](CC)(CC)Cc1ccccc1Cl)Cc1ccccc1Cl.[Cl-].[Cl-],,,,,198,,,
CCCCC(CC)CCC (centres undefined),,,,164,,,,
OOC1CCCCC1,,,,,-20,,,
CN(C)S(=O)(=O)N(SC(F)(Cl)Cl)c1ccccc1,,,-6.95,,106,not readily biodegradable,,
Cc1cccc(CC#N)c1,,,,248,,,,

SMILES,log10 Henry constant (atm·m³/mol),log10 Koc (L/kg),log10 vapour pressure (mmHg),boiling point [°C],melting point [°C],ready biodegradability,logP,log10 Koa
CC1(O)CCC(C(C)(C)O)CC1 (centres undefined),,,,,158,,,
CCCCC(CC)COC(=O)CCCCCCCC(=O)OCC(CC)CCCC (centres undefined),,,,,-78,readily biodegradable,,
S=C1CCCCCN1,,,,,108,,,
CCCCC(=O)OCCC,,,,168,-70.7,,,
Brc1cc(Br)c(Oc2c(Br)cc(Br)c(Br)c2Br)cc1Br,,,,,,,8.27,
C#CC(C)O (centres undefined),,,,106,-3,,,
CC(=O)OC1CC(C)OC(C)O1 (centres undefined),,,,,,readily biodegradable,,
CCCCCCCCCCCCCN,,,,276,27.4,,,
CCNCCN,,,,129,,,,
CO[C@@H]1C=C[C@@]23c4cc5c(cc4CO[C@]2(O)CN(C)[C@H]3C1)OCO5,,,,,210,,,
COc1ccc(C(=O)Cc2c(CCN(C)C)cc3c(c2OC)OCO3)c(C(=O)O)c1OC,,,,,138,,,
CCC(=O)OC/C=C(\C)CCC=C(C)C,,,,253,,,,
O=C(O)[C@@H](S)[C@@H](S)C(=O)O,,,,,193,,,
N#Cc1cccc2ccccc12,,,,299,37.5,,,
CC(C)(C)N(NC(=O)c1ccccc1)C(=O)c1ccccc1I,,,,,188,,,
c1cocn1,,,2.12,69.5,,,,
C[Si](C)(Cl)Cl,,,2.16,70.3,,,,
CCCCCC#N,,,0.455,164,-80.3,,,4.08
Nc1cccc(N)c1N,,,,336,103,,,
Cc1cccnc1N,,,,222,33.5,,,
COCCc1ccccn1,,,,203,,,,
CCCCCc1ccc(O)cc1O,,,,,72.5,,,
CCC(CC(C)C)C(C)C (centres undefined),,,,154,,,,
C1CCC(CCCC2CCCCC2)CC1,,,,292,-17,,,
CN1CC[C@]23CCCC[C@H]2[C@H]1Cc1ccc(O)cc13,,,,,198,,,
CCCCC#CCCCCC,,,,198,-74.1,,,

SMILES,log10 Henry constant (atm·m³/mol),log10 Koc (L/kg),log10 vapour pressure (mmHg),boiling point [°C],melting point [°C],ready biodegradability,logP,log10 Koa
FC(F)(I)C(F)(F)I,,,,112,,,,
C(CCOCC1CO1)COCC1CO1 (centres undefined),,,,266,,not readily biodegradable,,
CC(C)=C(C)C(C)C,,,1.35,116,-113,,,
O=C(O)C(F)Cl (centres undefined),,,,162,,,,
Oc1ccccc1Br,,,,194,5.6,not readily biodegradable,,
C=Cc1ccc(C)cc1,,,0.258,173,-34.1,,,
C=CCOC(=O)C(=O)OCC=C,,,,217,,,,
CCCCCCCCOC(=O)CCCCCCCCC(=O)OCCCCCCCC,,,,,,readily biodegradable,,
O=C(O)c1cc(Cl)cc(Cl)c1Cl,,,-3.51,,166,,,
CC=C1CCCCC1,,,,136,,,,
c1ccc(-c2oc(-c3ccccc3)c(-c3ccccc3)c2-c2ccccc2)cc1,,,,,175,,,
Nc1ccc(Cl)cn1,,,,,137,,,
C=CCc1ccc(O)cc1,,,,238,15.8,,,
[Br-].[Br-].c1cc[n+]2c(c1)-c1cccc[n+]1CC2,,,,,337,,,
CC12CC1(C)C(=O)N(c1cc(Cl)cc(Cl)c1)C2=O (centres undefined),,3.18,,,166,,,
COCCCCl,,,,111,,,,
CCOP(=S)(OCC)O/N=C(\C#N)c1ccccc1,,,-4.8,,6.1,not readily biodegradable,,
O=C(O)CCC(=O)Nc1ccccc1,,,,,148,,,
COc1ccc(CO)cc1O,,,,,136,,,
CCOC(C)OCC,,,1.44,102,-100,,,
COc1c(C[C@@H](O)C(C)C)c(=O)n(C)c2c(OC)cccc12,,,,,86.5,,,
CCC(c1ccccc1)c1ccccc1,,,,282,13.3,,,
CC(F)(F)Cl,-1.23,,3.41,-9.7,-131,,,
COc1cc(C)nc(-n2nc(C)cc2OC)n1,,,,,91,,,
NC[C@H]1CCCO1,,,,153,,,,
Oc1ccc(N=Nc2ccccc2)c(O)c1,,,,,170,,,

SMILES,log10 Henry constant (atm·m³/mol),log10 Koc (L/kg),log10 vapour pressure (mmHg),boiling point [°C],melting point [°C],ready biodegradability,logP,log10 Koa
CC(=O)[C@@]1(O)CC[C@H]2[C@@H]3C[C@H](C)C4=CC(=O)C=C[C@]4(C)[C@@]3(F)[C@@H](O)C[C@@]21C,,,,,297,,,
COc1ccc2c(c1)CCCN2,,,,284,42.5,,,
CC[Si](F)(CC)CC,,,1.57,110,,,,
c1ccc2c(c1)ccc1nc3c(ccc4ccccc43)cc12,,,,,226,,,
CCC(C)(C)C(C)(C)C,,,0.976,140,-9.8,,,
C1OCC2(CO1)COCOC2,,,,,48.3,,,
CC(=O)O[C@]1(C(C)=O)CC[C@H]2[C@@H]3C=C(Cl)C4=CC(=O)CC[C@]4(C)[C@H]3CC[C@@]21C,,,,,213,,,
C=CSC=C,,,,84,20,,,
CC(=O)C(C)(C)C(C)=O,,,,173,19,,,
CC(C)(C)C(=O)OC(=O)C(C)(C)C,,,-0.356,193,,,,
CCC(C)C(=O)C(C)CC (centres undefined),,,,162,,,,
CCCCCC(C)N (centres undefined),,,,142,,,,
O=C(c1ccccc1O)N1CCOCC1,,,,,175,,,
CC1COCc2cc3c(cc21)C(C)(C)C(C)C3(C)C (centres undefined),,,-3.26,325,-5,,,
CO[C@H](C(=O)c1ccccc1)c1ccccc1,,,,,49.5,,,
COC(=O)c1ccc(Cl)cc1,,,,,43.5,,,
C=CC(=O)OC1CCCCC1C (centres undefined),,,,210,,,,
c1ccc2c(c1)[nH]c1cnccc12,,,,,199,,,
C=CCN(CC=C)C(=O)CCl,,1.3,-2.03,,,,,
ClCCl,-2.49,1.44,2.64,40,-95.1,not readily biodegradable,,2.27
COP(=O)(OC)O/C(C)=C/C(=O)N(C)C,-10.3,1.66,-3.8,,,,,
CCCCCCCCCCCCCCCCOC(=O)C(C)O (centres undefined),,,,,41,,,
COC(=O)CCCBr,,,,186,,,,
Cc1cc2c(cc1C)C(=O)c1ccccc1C2=O,,,,,211,,,

# Same assay, conditions: fish
SMILES,log10 BCF,log10 biotransformation half-life (days)
Clc1ccc(Cl)c(-c2ccc(Cl)c(Cl)c2Cl)c1,5.38,2.31
Brc1cc(Br)c(Oc2c(Br)cc(Br)c(Br)c2Br)cc1Br,,1.65
Oc1ccccc1Br,1.52,-0.24
C=Cc1ccc(C)cc1,1.5,
CCOP(=S)(OCC)O/N=C(\C#N)c1ccccc1,2.91,
c1ccc2c(c1)ccc1nc3c(ccc4ccccc43)cc12,2.03,-0.14
ClCCl,1.36,-0.51
